Results on ten compounds are retold here after US6599706B1, “Recombinant PR-3 and assays employing the same” (Chiron Corporation, priority 1994, dated 2003).

As usually defined, the IC50 is the point on the concentration scale where inhibition reaches its midpoint.

In assay [1] the target is T1, TNFα convertase/PR-3 (purified native PR-3) (Homo sapiens, UniProt P24158).
T1 construct: from tissue; host or cells: human blood neutrophils
T1 sequence (P24158 28-248): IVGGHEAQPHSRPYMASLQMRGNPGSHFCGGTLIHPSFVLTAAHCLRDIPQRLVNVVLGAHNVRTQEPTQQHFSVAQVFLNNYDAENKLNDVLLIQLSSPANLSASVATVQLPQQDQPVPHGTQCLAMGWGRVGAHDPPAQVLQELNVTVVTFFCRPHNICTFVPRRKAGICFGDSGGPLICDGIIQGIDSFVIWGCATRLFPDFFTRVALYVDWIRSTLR
The assay is described as follows: Colorimetric Boc-Ala-ONp assay for convertase inhibition. It counts as biochemical. The note with it: for inhibition of TNFα convertase/PR-3 activity: 35 μM. On the procedure:
TNFα convertase inhibition can also be measured by a colorimetric assay. In this type of assay, the actual activity of TNFα convertase is measured directly using a colorimetric TNFα convertase substrate. […] One such substrate is Boc-Ala-ONp (Bachem Bioscience, Inc., Philadelphia, Pa.). Other potentially useful substrates can be predicted from the structure of TNFα convertase and other serine proteases. Although the example herein uses purified native PR-3 as the TNFα convertase, it is contemplated that recombinant PR-3 or other TNFα convertases can be used in this assay as well.
Peptide diphenyl phosphonate inhibitors were synthesized and stored as lyophilized solids as described in Oleksyszyn and Powers, Biochem 30:485-493 (1991). Inhibitor solutions (10 mg/ml) were prepared in 100% dimethyl sulfoxide (DMSO) and diluted into aqueous buffers upon initiation of the experiments. 3,4, dichloro-isocoumarin was purchased from CalBiochem. Purified PR-3 (10 μl, 0.1 mg/ml) was mixed with varying concentrations of protease inhibitor ([…]) in 20 mM sodium phosphate buffer, pH 7.0, containing 0.1 M sodium chloride. Aliquots (40 μl) were removed at selected times and diluted 1/10 into a colorimetric assay for convertase, containing 0.5-1 mM Boc-Ala-ONp (prepared fresh from a 50 mM stock in 100% methanol) in 0.02 M sodium phosphate buffer, pH 7.0, 0.1 M sodium chloride. The increase in absorbance was monitored at 347 nm on a Hewlett Packard 8450A spectrophotometer, and using an extinction coefficient of 5.5×10^3 M^−1cm^−1 to calculate units of enzyme activity.
The peptide diphenyl phosphonates were tested in the colorimetric assay described in Example 3, for inhibition of TNFα convertase/PR-3 activity.

The next assay addresses T2, recombinant PR-3 (rPR-3) (Homo sapiens, UniProt P24158).
T2 construct: made in house; host or cells: Sf9 insect cells (baculovirus, pAcC13preproPR-3)
T2 sequence (P24158 28-248 limits assumed): T1 sequence (P24158 28-248)
Nature of the assay: Residual recombinant PR-3 activity with Boc-Ala-ONp substrate. It counts as biochemical. How it is done: Cytoplasmic anti-neutrophil cytoplasmic antibodies (c-ANCA) are human polyclonal antibodies derived from patients with Wegener's granulomatosis. […] Protein-A-purified human c-ANCA (supplied by Dr. Erik Hack, The Netherlands) was mixed with purified recombinant PR-3 (SEQ ID NO: 23) prepared as described above at various molar ratios of antibody to enzyme, and after incubation for 1 hour at 37° C., residual enzyme activity was measured using the Boc-Ala-ONp substrate as described in Example 4.
The two peptide diphosphonate inhibitors, Boc-Ala-Pro-Val-(OPh)2 and Boc-Val-Pro-Val-(OPh)2, were mixed at various concentrations with 125 ng of rPR-3 (prepared as described above) and incubated for 1 hour at 25° C. The residual enzyme activity was measured using the Boc-Ala-ONp substrate and compared to the same amount of enzyme incubated in the absence of inhibitor. Under these conditions, the Boc-Ala-Pro-Val-(OPh)2 inhibited PR-3 with an IC50 of about 10 μM and the Boc-Val-Pro-Val-(OPh)2 inhibited PR-3 with an IC50 of about 0.4 μM. […] Thus, recombinant PR-3 may be employed in detection of useful inhibitors of native PR-3.

Assay [2] concerns the target T3, PR-3 (Homo sapiens, UniProt P24158).
T3 sequence (P24158 28-248): T1 sequence (P24158 28-248)
Nature of the assay: Inhibition of PR-3, summary statement of the assays shown below. It counts as biochemical. The text has this:
As shown below, PR-3 is inhibited by peptide diphenyl phosphonate inhibitors, elastinal, and dichloro-isocoumarin (DCI). The peptide diphenyl phosphonate inhibitors include Boc-Val-Pro-Val-p(OPh)2 and Boc-Ala-Pro-Val-p(OPh)2 (BOC-butoxycarbonyl). […] “Boc” means N-tert-butoxycarbonyl and “p(OPh)2” represents the diphenyl phosphonate moiety, wherein the formula—COOH group is replaced with P(=0)-(O-phenyl)2. See Oleksyszyn et al., Biochem 30:485 (1991). It will be appreciated that other peptide diphenyl phosphonate molecules may inhibit PR-3. Potential inhibitors may be constructed using the procedures shown in Oleksyszyn et al., supra, using small aliphatic peptides, for an example. Once the potential inhibitors are made, they may be tested in the assays shown below.

The target of assay [3] is T4, TNFα convertase from HL60 cells (Homo sapiens, UniProt P24158).
T4 construct: solution containing convertase activity partially purified from uninduced HL60 cells; endogenous in cells
T4 sequence (P24158 28-248): T1 sequence (P24158 28-248)
Nature of the assay: 35S-labelled 26 kD TNFα in vitro transcription/translation autoradiographic convertase assay with HL60 convertase (P-30 fraction). The format is biochemical. Conditions: 30° C., 1 hour, SDS-PAGE autoradiography. The text has this:
A preferred assay procedure consists of in vitro transcription/translation to produce the 26 kD molecule, followed by treatment with convertase in the presence or absence of compounds being tested for convertase inhibitory activity. The procedure entails in vitro transcription/translation of the TNFα cDNA present in the pGEM vector. Thus, the sequence was removed from pB11 by Pst I digestion and was inserted into the Pst I site of pGEM-3 (obtainable from Promega Biotec, Madison Wis.). The resulting plasmid, termed pGEM-TNFα14, was amplified in E. coli using established techniques, and plasmid DNA was prepared according to the procedure of Birnboim and Doly, described above. Plasmid DNA was transcribed in vitro by linearizing it with Hind III, and the linearized plasmid templates were used to prepare capped transcripts with T7 RNA polymerase and an in vitro transcription kit supplied by Promega Biotec (Madison, Wis.).
The mRNA produced above was translated in vitro in the presence of ^35S-cysteine to produce ^35S-cysteine-labelled 26 kD TNFα. A rabbit reticulocyte lysate translation kit was used, also supplied by Promega Biotec, and the conditions recommended by the manufacturer were followed.
^35S-cysteine-labelled 26 kD TNFα was used to assay for convertase inhibitors as follows. 25 μl of in vitro translated material was combined with 250 μl of solution containing convertase activity partially purified from uninduced HL60 cells, plus compounds to be assayed for inhibitory activity. The convertase was produced by harvesting 2×10^9 HL60 cells, disrupting the cells, and isolating S-1 (supernatant fluid from a 100,000 ×g centrifugation) and P-30 (pellet from a 30,000×g centrifugation) fractions totalling 18 and 6 ml, respectively. 250 μl of the P-30 fraction was used, although the S-1 fraction may also be used. The assay was carried out at 30° C. for 1 hour, essentially as described above. Next, the reaction mixture was immunoprecipitated with rabbit anti-human TNFα polyclonal antisera (produced from TNFα made in E. coli) and protein A Sepharose, pelleted and washed. […]

Assay [4] addresses T3, PR-3. The note with it: cited from earlier work.
Assay [5] concerns the target T5, purified native PR-3 from human neutrophils (Homo sapiens, UniProt P24158).
T5 construct: from tissue; host or cells: human blood neutrophils
T5 sequence (P24158 28-248): T1 sequence (P24158 28-248)
Nature of the assay: 35S-labelled 26 kD TNFα autoradiographic convertase assay with purified native PR-3. The format is biochemical. The note with it: PR-3 0.3 μg/ml preincubated 30 minutes. How it is done: ^35S-cysteine-labelled 26 kD TNFα was used to assay for convertase inhibitors as follows. 25 μl of in vitro translated material was combined with 250 μl of solution containing convertase activity partially purified from uninduced HL60 cells, plus compounds to be assayed for inhibitory activity. The convertase was produced by harvesting 2×10^9 HL60 cells, disrupting the cells, and isolating S-1 (supernatant fluid from a 100,000 ×g centrifugation) and P-30 (pellet from a 30,000×g centrifugation) fractions totalling 18 and 6 ml, respectively. 250 μl of the P-30 fraction was used, although the S-1 fraction may also be used. The assay was carried out at 30° C. for 1 hour, essentially as described above. Next, the reaction mixture was immunoprecipitated with rabbit anti-human TNFα polyclonal antisera (produced from TNFα made in E. coli) and protein A Sepharose, pelleted and washed. The bound protein was eluted and electrophoresed using SDS-PAGE. The gel was fixed in 40% methanol, 10% acetic acid, soaked in Enlightening (Dupont), dried, and exposed to X-ray film which was subsequently developed.
The above assay was also used with purified native PR-3 from human neutrophils to test a variety of proteinase inhibitors for their ability to inhibit TNFα convertase activity, as shown in FIG. 5. Purified PR-3 (0.3 μg/ml) was preincubated for 30 minutes with the following inhibitors prior to addition of ^35S-labelled 26 kD-TNFα, and then assayed as described above: DCI (45 μM), α-2-macroglobulin (1 mg/ml), PMSF (20 μM), leupeptin (2 μg/ml), EDTA (10 mM), or pepstatin (2 μg/ml).

Like-named read-outs stand apart in the source and are kept apart here. No end group written: not given here.

Regarding AQAVRSSS, the “inhibition of convertase activity” value in assay [1] (50 μM, Boc-Ala-ONp colorimetric assay with PR-3) is “did not inhibit convertase activity significantly”. Turning to `CC(C)C(NC(=O)[C@@H]1CCCN1C(=O)[C@H](C)NC(=O)OC(C)(C)C)P(=O)(Oc1ccccc1)Oc1ccccc1` (stereo partly drawn) [APV, Boc-Ala-Pro-Val-p(OPh)2], the “inhibition of TNFα convertase/PR-3 activity” value in assay [1] was “demonstrated inhibitory activity”. Besides, the IC50 at recombinant PR-3 (rPR-3) is ~10 µM. For the same compound, the “inhibition of PR-3” value at PR-3 [2] is recorded as “inhibited”. The corresponding values for `CC(C)C(NC(=O)[C@@H]1CCCN1C(=O)[C@@H](NC(=O)OC(C)(C)C)C(C)C)P(=O)(Oc1ccccc1)Oc1ccccc1` (stereo partly drawn) [VPV, Boc-Val-Pro-Val-p(OPh)2] are “demonstrated inhibitory activity”, ~0.4 µM and “inhibited”. Take `CO[C@@H]1C(=O)N2C(C(=O)N3CCOCC3)=C(COC(C)=O)CS(=O)(=O)[C@H]12` (relative stereo) [(1-((3-((acetyloxyl)-7-methoxy-8-oxy-8-oxo-5-thio-1-azabicyclo [4.2.0]oct-2-en-2-yl)carbonyl)morpholine, S, S-dioxide, (6R-cis)]: the “inhibition of convertase activity (conversion of 26 kD TNFα)” value in assay [3] (1 mM) is on record as “inhibits convertase activity”. For `CC(C)CC(NC(=O)OC(C)(C)C)C(=O)NC(C)C(=O)NC(CCC(N)=O)C(=O)NC(C)P(=O)(Oc1ccccc1)Oc1ccccc1` (stereo not drawn) [LAQA, Boc-Leu-Ala-Gln-Ala-p(OPh)2], the “inhibition of TNFα convertase/PR-3 activity” value in assay [1] is given as “marginal, if any inhibition”. In addition, the “inhibition of PR-3” value on PR-3 [2] is given as “much less inhibitory activity”. As for `CC(NC(=O)OC(C)(C)C)C(=O)NC(CCC(N)=O)C(=O)NC(C)P(=O)(Oc1ccccc1)Oc1ccccc1` (stereo not drawn) [AQA, Boc-Ala-Gln-Ala-p(OPh)2], the “inhibition of TNFα convertase/PR-3 activity” value in assay [1] is reported as “marginal, if any inhibition”. At PR-3 [2], the “inhibition of PR-3” value is “much less inhibitory activity”. As for “α1-antitrypsin: protein reported to inhibit PR-3”, in the assay with PR-3 [4], the “inhibition of PR-3” value is on record as “inhibited”. As to `O=S(=O)(F)Cc1ccccc1` [PMSF, phenylmethyl-sulfonyl fluoride], in assay [5] (20 μM), the “inhibition of TNFα convertase activity of purified PR-3” value is recorded as “significant inhibitory activity”. Further, the “inhibition of PR-3” value on PR-3 [4] is on record as “inhibited”. Turning to “α-2-macroglobulin: proteinase inhibitor tested against purified PR-3”, the “inhibition of TNFα convertase activity of purified PR-3” value in assay [5] (1 mg/ml) is listed as “significant inhibitory activity”. Further, in the assay with PR-3 [4], the “inhibition of PR-3” value was “inhibited”. `CC(C)C[C@H](NC(=O)N[C@H](C(=O)N[C@@H](CCC(N)=O)C(=O)N[C@@H](C)C=O)[C@@H]1CCNC(=N)N1)C(=O)O` [elastinal]: the “inhibition of the convertase (conversion of 26 kD TNFα)” value in assay [3] (5 mg/ml) is reported as “inhibit the convertase”. In addition, the “inhibition of PR-3” value against PR-3 [2] is given as “inhibited”.
